According to patent US20260327211A1, “MODULATORS OF A POTASSIUM CHANNEL AND OF TRPV1 CHANNEL AND USES THEREOF” (Bsense Bio Therapeutics Ltd., priority 2023, published 2026):
Entries after “also recorded” stand apart in the source; their conditions may differ. One block for each compound: values may come before it.

Tests used:
[1] = test system: Chronic Post-Ischemia Pain (CPIP) rats; assay: Chronic Post-Ischemia Pain (CPIP) model, von Frey; assay type: in vivo, rat; settings: 100 mg/kg oral, 6 hours post-dose
Description: (§1) All animal experiments were carried out according to the Guide for the Care and Use of Laboratory Animals (2011 edition) and approved by the Israel National Institutional Animal Care and Use Committee (IACUC). Young adult male SD rats (Envigo RMS, Israel), were used for in vivo efficacy: Spared Nerve Injury (SNI), Distal Tibial Injury (DTI) and Post-operative Pain (POP), 200-220 grams, Chronic Post-Ischemia Pain (CPIP) 275-325 grams, Monosodium iodoacetate-induced osteoarthritis (MIA-OA) 180-220 grams; for in vivo safety: 200-250 grams at study initiation. […] The health status of the animals used in this study was examined upon their arrival. Only animals in good health were acclimatized to laboratory conditions and were used in the studies. All studies were performed following at least five days of animal acclimation. During acclimation and throughout the entire study duration, animals were housed within a limited-access rodent facility and kept in groups with a maximum of 2-3 rats per polypropylene cage. The cages were fitted with solid bottoms and filled with sterile wood shavings as bedding material. […] Water was monitored periodically. […]
On study day 14, the animal's response to von Frey filaments was measured. […]

[2] = test system: Post-operative Pain (POP) rats; assay: Post-operative Pain model, thermal; assay type: in vivo, rat; settings: 100 mg/kg, 6 hours post-dose
Description: as §1, with “acclimation.” for “acclimation. During acclimation and throughout the entire study duration, animals were housed within a limited-access rodent facility and kept in groups with a maximum of 2-3 rats per polypropylene cage. The cages were fitted with solid bottoms and filled with sterile wood shavings as bedding material.”
Post-operative Pain (POP): For this model, animals were anesthetized by medetomidine/ketamine sodium IP. […] On the following day, animal responses to von Frey (VF) filaments and hot-plate testing were recorded.
Hot Plate: Animals were placed on hot plate analgesia meter (IITC Life Science Inc., CA, USA) set to 53±1° C., and the time until the first escape response was observed was recorded. […]

muscarinic m2 receptor = biological target: T1, muscarinic m2 receptor (Homo sapiens, UniProt P08172); assay: Functional selectivity panel, muscarinic m2 receptor; assay type: biochemical
T1 construct: Eurofins DiscoverX, USA
T1 sequence (P08172 whole entry): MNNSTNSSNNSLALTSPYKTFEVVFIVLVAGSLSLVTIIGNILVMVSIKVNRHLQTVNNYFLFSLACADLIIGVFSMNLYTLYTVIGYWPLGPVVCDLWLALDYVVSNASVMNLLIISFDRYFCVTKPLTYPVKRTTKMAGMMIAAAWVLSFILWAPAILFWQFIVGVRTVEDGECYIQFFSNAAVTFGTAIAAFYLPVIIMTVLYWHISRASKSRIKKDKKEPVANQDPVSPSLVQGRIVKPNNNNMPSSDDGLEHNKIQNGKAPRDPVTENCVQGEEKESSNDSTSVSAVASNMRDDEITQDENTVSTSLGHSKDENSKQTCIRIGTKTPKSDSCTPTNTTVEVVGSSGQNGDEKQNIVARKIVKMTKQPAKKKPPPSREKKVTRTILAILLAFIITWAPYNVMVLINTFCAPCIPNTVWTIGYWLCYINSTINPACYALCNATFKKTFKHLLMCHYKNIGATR
Description: (§2) A broad panel of 78 recombinant targets was tested for pharmacologic activity in vitro through a variety of functional assays (Eurofins DiscoverX, USA), as part of the National Institute of Neurological Disorders and Stroke (NINDS) Preclinical Screening Platform for Pain (PSPP) program. The biological targets for the in vitro profiling have been selected based on avoiding opioid receptor stimulation and targets known to be associated with adverse events or targeted by drugs of abuse. […] For each test, a reference compound was evaluated at the target of interest as a positive control.

cannabinoid 1 receptor = biological target: T2, cannabinoid 1 receptor (Homo sapiens, UniProt P21554); assay: Functional selectivity panel, cannabinoid 1 receptor; assay type: biochemical
T2 construct: Eurofins DiscoverX, USA
T2 sequence (P21554 whole entry): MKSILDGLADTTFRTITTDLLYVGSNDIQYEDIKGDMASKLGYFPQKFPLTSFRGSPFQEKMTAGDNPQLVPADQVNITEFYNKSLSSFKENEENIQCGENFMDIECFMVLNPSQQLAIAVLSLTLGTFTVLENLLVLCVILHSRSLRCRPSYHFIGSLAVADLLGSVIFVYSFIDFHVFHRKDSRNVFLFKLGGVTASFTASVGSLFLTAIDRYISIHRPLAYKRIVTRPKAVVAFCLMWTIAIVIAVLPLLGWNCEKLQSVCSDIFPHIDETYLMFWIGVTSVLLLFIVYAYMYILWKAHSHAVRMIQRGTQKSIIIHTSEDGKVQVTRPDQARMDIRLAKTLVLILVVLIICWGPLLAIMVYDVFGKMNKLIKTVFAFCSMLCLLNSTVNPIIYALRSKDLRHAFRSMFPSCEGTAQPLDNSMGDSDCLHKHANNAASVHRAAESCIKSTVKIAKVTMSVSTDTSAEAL
Description: as §2

hTRPV1 = biological target: T3, hTRPV1 (Homo sapiens, UniProt Q8NER1); assay: hTRPV1 dual activity electrophysiology, CHO cells co-expressing hKv7.2/3 and hTRPV1; assay type: cell-based; settings: 100 nM
T3 construct: CDS of NM_080704.4, inserted into the multiple cloning site of pcDNA3.1(+); host or cells: CHO/hKv7.2/3
T3 sequence (Q8NER1 whole entry): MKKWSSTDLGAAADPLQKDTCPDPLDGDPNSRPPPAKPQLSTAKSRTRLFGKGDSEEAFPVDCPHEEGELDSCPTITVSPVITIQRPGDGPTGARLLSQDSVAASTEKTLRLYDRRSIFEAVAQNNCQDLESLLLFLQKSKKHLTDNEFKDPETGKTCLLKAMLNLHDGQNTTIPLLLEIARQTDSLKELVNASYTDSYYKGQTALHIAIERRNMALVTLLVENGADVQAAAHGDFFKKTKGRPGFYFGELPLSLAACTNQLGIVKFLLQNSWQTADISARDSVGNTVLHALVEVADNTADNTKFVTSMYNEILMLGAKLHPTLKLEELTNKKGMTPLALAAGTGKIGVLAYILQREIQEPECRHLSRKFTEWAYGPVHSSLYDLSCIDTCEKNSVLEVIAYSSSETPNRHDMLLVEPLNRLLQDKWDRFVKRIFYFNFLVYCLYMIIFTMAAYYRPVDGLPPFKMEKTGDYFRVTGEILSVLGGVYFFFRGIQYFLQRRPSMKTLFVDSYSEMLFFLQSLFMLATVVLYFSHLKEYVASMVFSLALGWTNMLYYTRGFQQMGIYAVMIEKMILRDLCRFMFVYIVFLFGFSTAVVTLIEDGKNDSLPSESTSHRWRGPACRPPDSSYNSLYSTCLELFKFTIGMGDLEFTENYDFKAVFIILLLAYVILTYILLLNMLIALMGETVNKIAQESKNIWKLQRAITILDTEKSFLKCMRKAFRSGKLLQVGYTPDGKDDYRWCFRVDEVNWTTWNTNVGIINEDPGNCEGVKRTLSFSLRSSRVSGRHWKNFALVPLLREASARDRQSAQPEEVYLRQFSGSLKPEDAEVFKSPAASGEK

rats = assay: Chronic 5-day BID exposure; assay type: in vivo, rat; settings: up to 300 mg/kg BID, oral
5-HT1A = 5-HT1A (Homo sapiens, UniProt P08908); assay: Functional screening panel, 5-HT1A; assay type: biochemical; settings: antagonist; read-out: IC/EC50 5-HT1A-antagonist
5-HT1A, sequence (P08908 whole entry, species assumed): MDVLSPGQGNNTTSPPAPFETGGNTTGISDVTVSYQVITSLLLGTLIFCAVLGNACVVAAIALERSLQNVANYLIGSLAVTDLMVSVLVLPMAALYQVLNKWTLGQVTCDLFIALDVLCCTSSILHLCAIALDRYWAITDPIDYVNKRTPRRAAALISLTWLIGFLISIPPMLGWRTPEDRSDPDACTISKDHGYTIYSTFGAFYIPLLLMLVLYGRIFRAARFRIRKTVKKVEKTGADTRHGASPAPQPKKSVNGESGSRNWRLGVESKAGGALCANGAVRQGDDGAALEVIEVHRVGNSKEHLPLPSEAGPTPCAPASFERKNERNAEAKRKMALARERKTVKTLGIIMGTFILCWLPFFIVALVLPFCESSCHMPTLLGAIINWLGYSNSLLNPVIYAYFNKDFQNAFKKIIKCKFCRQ
Description: as §2

MATE2-K = assay: Transporter substrate, MATE2-K; assay type: in vitro ADME; settings: role: substrate
Description: Additionally, compound 760 was tested for its capability to act as a transporter substrate for various transporters, and was not found to be a transporter substrate for any of the tested transporters.

hERG = hERG (Homo sapiens, UniProt Q12809); assay: Functional selectivity panel, hERG; assay type: biochemical; parameters: Eurofins DiscoverX functional panel cells; settings: up to 10 micromolar
hERG, sequence (Q12809 whole entry): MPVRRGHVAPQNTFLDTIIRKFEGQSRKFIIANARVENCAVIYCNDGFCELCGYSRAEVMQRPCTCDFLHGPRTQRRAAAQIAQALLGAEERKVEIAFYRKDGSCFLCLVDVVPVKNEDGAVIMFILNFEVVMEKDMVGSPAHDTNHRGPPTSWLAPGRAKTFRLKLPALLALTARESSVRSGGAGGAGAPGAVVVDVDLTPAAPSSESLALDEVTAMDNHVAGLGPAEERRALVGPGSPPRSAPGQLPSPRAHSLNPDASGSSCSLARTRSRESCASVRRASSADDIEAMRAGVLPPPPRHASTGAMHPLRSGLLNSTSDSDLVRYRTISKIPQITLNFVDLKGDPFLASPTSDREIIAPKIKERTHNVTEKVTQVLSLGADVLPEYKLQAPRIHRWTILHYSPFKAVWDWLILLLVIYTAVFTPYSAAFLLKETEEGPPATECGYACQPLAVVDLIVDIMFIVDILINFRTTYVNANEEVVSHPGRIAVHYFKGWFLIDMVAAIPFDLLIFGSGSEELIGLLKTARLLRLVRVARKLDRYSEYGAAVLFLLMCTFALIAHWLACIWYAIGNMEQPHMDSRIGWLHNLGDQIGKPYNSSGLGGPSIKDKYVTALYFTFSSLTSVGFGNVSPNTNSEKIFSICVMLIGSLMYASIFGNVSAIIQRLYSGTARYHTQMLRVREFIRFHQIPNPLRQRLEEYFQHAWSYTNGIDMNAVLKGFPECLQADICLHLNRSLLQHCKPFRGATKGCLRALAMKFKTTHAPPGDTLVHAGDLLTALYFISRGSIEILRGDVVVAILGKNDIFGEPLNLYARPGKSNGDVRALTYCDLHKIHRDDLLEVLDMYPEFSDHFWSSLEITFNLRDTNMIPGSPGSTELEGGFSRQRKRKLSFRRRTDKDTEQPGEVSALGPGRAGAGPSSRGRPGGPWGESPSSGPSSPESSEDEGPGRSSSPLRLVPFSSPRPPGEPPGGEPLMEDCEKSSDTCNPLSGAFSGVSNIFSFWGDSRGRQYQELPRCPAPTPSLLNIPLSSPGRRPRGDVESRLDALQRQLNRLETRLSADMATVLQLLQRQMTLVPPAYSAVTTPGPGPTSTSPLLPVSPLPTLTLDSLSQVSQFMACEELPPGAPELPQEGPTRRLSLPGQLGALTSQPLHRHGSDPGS
Description: as §2

IC50 (muscarinic m2 receptor): 5 µM
IC50 (cannabinoid 1 receptor): 1.4 µM
Compound: O=C(Cc1cncc(-n2cc(Cl)c3cc(Cl)cc(Cl)c32)c1)N[C@@H]1COC[C@H]1O [Compound 661]
Reversal of mechanical PWT [1]: 27.6%
Thermal withdrawal latency [2]: completely reversed

Compound: O=C(Cc1cc(-n2cc(Cl)c3cc(Cl)cc(Cl)c32)ccc1F)NCCO [Compound 627]
hTRPV1 inhibition without hKv7.2/3 activation (hTRPV1): lack of hTRPV1 inhibition-potency gain; also recorded: TRPV1 could not be inhibited even at 100 nM

Compound: O=C(Cc1nccc(-n2cc(Cl)c3cc(Cl)cc(Cl)c32)n1)NC1COCC1O (stereo not drawn) [Compound 760]
Gross safety, 5-day BID (rats): did not raise any gross safety concerns
IC50 (5-HT1A): 30.4 µM
MATE2-K substrate (MATE2-K): not a transporter substrate
Effect on hERG (hERG): no effect
